{"source": "patent US11370847B2", "about": "“Single domain antibodies directed against intracellular antigens” (Singh Biotechnology, LLC, priority 2014, dated 2022)", "key": {"PANC-1 cells [1]": {"tested_on": "PANC-1 cells", "experiment": "Internalization of sdAb, anti-His staining, PANC-1", "assay_type": "cell-based", "details": "18 hours after sdAb addition", "protocol": "The next day, the chambers were rinsed with fresh media and STAT3 VHH13 (SEQ ID NO:3) sdAb (diluted 1:10 in media) or TNF-α VHH66 (SEQ ID NO:45) sdAb was added to the chamber. An anti-HIV-1 Reverse Transcriptase (RT) sdAb was used as a negative control.\nThe slides were incubated for 18 hours after sdAb addition. The chambers were briefly rinsed with media and fixed in ice-cold methanol for 5-10 min. The chambers were then dried and stained with a fluorescent anti-His tag antibody (1:200) (Novus Biologicals, Littleton, Colo.) for 45 min at room temperature. The slides were rinsed in PBS for 5 minutes and mounted."}, "PANC-1 cells [2]": {"tested_on": "PANC-1 cells", "experiment": "MTT proliferation assay, PANC-1", "details": "SBT-100 100 μg/ml alone, experiment with Gemcitabine Hydrochloride (Biovision #1759), 72 hours"}, "VEGF-A": {"tested_on": "VEGF-A", "experiment": "VEGF-A ELISA in ARPE-19 retinal cells", "assay_type": "cell-based, human", "details": "Experiment 2; for pg VEGF-A per μg protein: single wells"}, "MDA-MB-231 xenograft": {"tested_on": "MDA-MB-231 xenograft", "details": "for Individual Tumor Measurements: listed as anti-STAT3 bacterial VHH13"}, "[3]": {"details": "Group 2, 1 mg/kg IP BID×14, day 20 (6/23/15)"}, "[4]": {"details": "Group 2, 1 mg/kg IP BID×14, day 23 (6/26/15)"}, "[5]": {"details": "Group 2, 1 mg/kg IP BID×14, day 26 (6/29/15)"}, "[6]": {"details": "Group 2, 1 mg/kg IP BID×14, day 29 (7/2/15)"}, "[7]": {"details": "Group 2, 1 mg/kg IP BID×14, day 33 (7/6/15)"}, "[8]": {"details": "Group 2, 1 mg/kg IP BID×14, day 36 (7/9/15)"}, "[9]": {"details": "Group 2, 1 mg/kg IP BID×14, day 42 (7/15/15)"}, "[10]": {"details": "Group 3, 2 mg/kg IP BID×14, day 20 (6/23/15)"}, "[11]": {"details": "Group 3, 2 mg/kg IP BID×14, day 23 (6/26/15)"}, "[12]": {"details": "Group 3, 2 mg/kg IP BID×14, day 26 (6/29/15)"}, "[13]": {"details": "Group 3, 2 mg/kg IP BID×14, day 29 (7/2/15)"}}, "note": "Several values for one entry are separate records, joined by “and”; a condition that tells them apart may be missing. Equal values may be shown once. Read-outs that look alike come from different tables or passages of the source."}
{"substance": "anti-STAT3 VHH13: anti-STAT3 single-domain antibody, SEQ ID NO:3; bacterially produced, referred to as SBT-100", "values": [{"measurement": "staining with fluorescent anti-His tag antibody", "setting": "PANC-1 cells [1]", "value": "positive cytoplasmic staining"}, {"measurement": "Abs", "setting": "PANC-1 cells [2]", "value": 0.381}, {"measurement": "pg VEGF-A per μg protein", "setting": "VEGF-A; ARPE-19, 0.1 μg/well, 12 Hr", "value": 2.4, "unit": "pg per μg protein"}, {"measurement": "pg VEGF-A per μg protein", "setting": "VEGF-A; ARPE-19, 10 μg/well, 24 Hr", "value": 4.4, "unit": "pg per μg protein"}, {"measurement": "decrease in VEGF-A", "setting": "VEGF-A; ARPE-19, 100 μg/mL, 12 hour treatment", "value": 20.1, "unit": "%"}, {"measurement": "decrease in VEGF-A", "setting": "VEGF-A; ARPE-19, 100 μg/mL, 24 hour treatment", "value": 7.5, "unit": "%"}, {"measurement": "pg VEGF-A/μg protein as % of the negative control", "setting": "VEGF-A; ARPE-19, 100 μg/mL, 48 hours", "value": 11, "unit": "%"}, {"measurement": "decrease in VEGF-A", "setting": "VEGF-A; lower concentrations (10, 1 or 0.1 μg/ml)", "value": "not seen"}, {"measurement": "% mean tumor growth inhibition", "setting": "MDA-MB-231 xenograft; 500 μg/kg bw IP QD×14", "value": 33.64, "unit": "%"}, {"measurement": "mean tumor size (±SE) on day 14 of dosing", "setting": "MDA-MB-231 xenograft; 500 μg/kg bw IP QD×14", "value": "118.86±15.94"}, {"measurement": "tumor doubling time", "setting": "MDA-MB-231 xenograft; 500 μg/kg bw IP QD×14, control 44.27 days", "value": 61.06, "unit": "days"}, {"measurement": "% Inhibition Mean", "setting": "MDA-MB-231 xenograft; [3]", "value": 10.34, "unit": "%"}, {"measurement": "% Inhibition Median", "setting": "MDA-MB-231 xenograft; [3]", "value": 18.61, "unit": "%"}, {"measurement": "Tumor Mean Absolute", "setting": "MDA-MB-231 xenograft; [3]", "value": 82.92, "unit": "mm^3"}, {"measurement": "Tumor Median Absolute", "setting": "MDA-MB-231 xenograft; [3]", "value": 80.66, "unit": "mm^3"}, {"measurement": "Individual Tumor Measurements", "setting": "MDA-MB-231 xenograft; [3]", "value": "73.15 mm^3 and 80.11 mm^3 and 97.22 mm^3 and 81.21 mm^3"}, {"measurement": "% Inhibition Mean", "setting": "MDA-MB-231 xenograft; [4]", "value": 52.39, "unit": "%"}, {"measurement": "% Inhibition Median", "setting": "MDA-MB-231 xenograft; [4]", "value": 43.28, "unit": "%"}, {"measurement": "Tumor Mean Absolute", "setting": "MDA-MB-231 xenograft; [4]", "value": 66.17, "unit": "mm^3"}, {"measurement": "Tumor Median Absolute", "setting": "MDA-MB-231 xenograft; [4]", "value": 65.55, "unit": "mm^3"}, {"measurement": "Individual Tumor Measurements", "setting": "MDA-MB-231 xenograft; [4]", "value": "54.54 mm^3 and 76.56 mm^3 and 79.99 mm^3 and 53.58 mm^3"}, {"measurement": "% Inhibition Mean", "setting": "MDA-MB-231 xenograft; [5]", "value": 60.52, "unit": "%"}, {"measurement": "% Inhibition Median", "setting": "MDA-MB-231 xenograft; [5]", "value": 50.54, "unit": "%"}, {"measurement": "Tumor Mean Absolute", "setting": "MDA-MB-231 xenograft; [5]", "value": 68.07, "unit": "mm^3"}, {"measurement": "Tumor Median Absolute", "setting": "MDA-MB-231 xenograft; [5]", "value": 68.80, "unit": "mm^3"}, {"measurement": "Individual Tumor Measurements", "setting": "MDA-MB-231 xenograft; [5]", "value": "59.17 mm^3 and 80.34 mm^3 and 78.44 mm^3 and 54.34 mm^3"}, {"measurement": "% Inhibition Mean", "setting": "MDA-MB-231 xenograft; [6]", "value": 65.12, "unit": "%"}, {"measurement": "% Inhibition Median", "setting": "MDA-MB-231 xenograft; [6]", "value": 61.81, "unit": "%"}, {"measurement": "Tumor Mean Absolute", "setting": "MDA-MB-231 xenograft; [6]", "value": 68.32, "unit": "mm^3"}, {"measurement": "Tumor Median Absolute", "setting": "MDA-MB-231 xenograft; [6]", "value": 63.66, "unit": "mm^3"}, {"measurement": "Individual Tumor Measurements", "setting": "MDA-MB-231 xenograft; [6]", "value": "57.21 mm^3 and 88.75 mm^3 and 59.90 mm^3 and 67.43 mm^3"}, {"measurement": "% Inhibition Mean", "setting": "MDA-MB-231 xenograft; [7]", "value": 69.70, "unit": "%"}, {"measurement": "% Inhibition Median", "setting": "MDA-MB-231 xenograft; [7]", "value": 72.26, "unit": "%"}, {"measurement": "Tumor Mean Absolute", "setting": "MDA-MB-231 xenograft; [7]", "value": 67.12, "unit": "mm^3"}, {"measurement": "Tumor Median Absolute", "setting": "MDA-MB-231 xenograft; [7]", "value": 56.75, "unit": "mm^3"}, {"measurement": "Individual Tumor Measurements", "setting": "MDA-MB-231 xenograft; [7]", "value": "56.20 mm^3 and 99.09 mm^3 and 55.90 mm^3 and 57.30 mm^3"}, {"measurement": "% Inhibition Mean", "setting": "MDA-MB-231 xenograft; [8]", "value": 78.28, "unit": "%"}, {"measurement": "% Inhibition Median", "setting": "MDA-MB-231 xenograft; [8]", "value": 79.75, "unit": "%"}, {"measurement": "Tumor Mean Absolute", "setting": "MDA-MB-231 xenograft; [8]", "value": 51.81, "unit": "mm^3"}, {"measurement": "Tumor Median Absolute", "setting": "MDA-MB-231 xenograft; [8]", "value": 45.40, "unit": "mm^3"}, {"measurement": "Individual Tumor Measurements", "setting": "MDA-MB-231 xenograft; [8]", "value": "37.13 mm^3 and 87.42 mm^3 and 53.66 mm^3 and 29.02 mm^3"}, {"measurement": "% Inhibition Mean", "setting": "MDA-MB-231 xenograft; [9]", "value": 78.08, "unit": "%"}, {"measurement": "% Inhibition Median", "setting": "MDA-MB-231 xenograft; [9]", "value": 76.74, "unit": "%"}, {"measurement": "Tumor Mean Absolute", "setting": "MDA-MB-231 xenograft; [9]", "value": 55.98, "unit": "mm^3"}, {"measurement": "Tumor Median Absolute", "setting": "MDA-MB-231 xenograft; [9]", "value": 56.29, "unit": "mm^3"}, {"measurement": "Individual Tumor Measurements", "setting": "MDA-MB-231 xenograft; [9]", "value": "39.17 mm^3 and 72.18 mm^3 and 60.35 mm^3 and 52.23 mm^3"}, {"measurement": "growth delay", "setting": "MDA-MB-231 xenograft; Group 2: 1 mg/kg bw IP BID×14", "value": 13.99, "unit": "days"}, {"measurement": "mean growth inhibition", "setting": "MDA-MB-231 xenograft; Group 2: 1 mg/kg bw IP BID×14", "value": 78.3}, {"measurement": "mean tumor size (±S.E.) at termination (day 42)", "setting": "MDA-MB-231 xenograft; Group 2: 1 mg/kg bw IP BID×14", "value": "55.98±6.94"}, {"measurement": "mean tumor size (±SE) at day 14 of dosing", "setting": "MDA-MB-231 xenograft; Group 2: 1 mg/kg bw IP BID×14", "value": "67.12±10.66"}, {"measurement": "% treatment/control", "setting": "MDA-MB-231 xenograft; Group 2: 1 mg/kg bw IP BID×14, (tumor stasis)", "value": "−33.75", "unit": "%"}, {"measurement": "tumor doubling time", "setting": "MDA-MB-231 xenograft; Group 2: 1 mg/kg bw IP BID×14, control 20.56 days", "value": 34.54, "unit": "days"}, {"measurement": "% Inhibition Mean", "setting": "MDA-MB-231 xenograft; [10]", "value": 16.19, "unit": "%"}, {"measurement": "% Inhibition Median", "setting": "MDA-MB-231 xenograft; [10]", "value": 15.78, "unit": "%"}, {"measurement": "Tumor Mean Absolute", "setting": "MDA-MB-231 xenograft; [10]", "value": 77.52, "unit": "mm^3"}, {"measurement": "Tumor Median Absolute", "setting": "MDA-MB-231 xenograft; [10]", "value": 83.46, "unit": "mm^3"}, {"measurement": "Individual Tumor Measurements", "setting": "MDA-MB-231 xenograft; [10]", "value": "56.41 mm^3 and 84.06 mm^3 and 82.87 mm^3 and 86.73 mm^3"}, {"measurement": "% Inhibition Mean", "setting": "MDA-MB-231 xenograft; [11]", "value": 59.06, "unit": "%"}, {"measurement": "% Inhibition Median", "setting": "MDA-MB-231 xenograft; [11]", "value": 57.27, "unit": "%"}, {"measurement": "Tumor Mean Absolute", "setting": "MDA-MB-231 xenograft; [11]", "value": 56.89, "unit": "mm^3"}, {"measurement": "Tumor Median Absolute", "setting": "MDA-MB-231 xenograft; [11]", "value": 49.39, "unit": "mm^3"}, {"measurement": "Individual Tumor Measurements", "setting": "MDA-MB-231 xenograft; [11]", "value": "43.61 mm^3 and 85.18 mm^3 and 54.78 mm^3 and 44.01 mm^3"}, {"measurement": "% Inhibition Mean", "setting": "MDA-MB-231 xenograft; [12]", "value": 77.83, "unit": "%"}, {"measurement": "% Inhibition Median", "setting": "MDA-MB-231 xenograft; [12]", "value": 75.54, "unit": "%"}, {"measurement": "Tumor Mean Absolute", "setting": "MDA-MB-231 xenograft; [12]", "value": 38.22, "unit": "mm^3"}, {"measurement": "Tumor Median Absolute", "setting": "MDA-MB-231 xenograft; [12]", "value": 34.02, "unit": "mm^3"}, {"measurement": "Individual Tumor Measurements", "setting": "MDA-MB-231 xenograft; [12]", "value": "33.13 mm^3 and 61.75 mm^3 and 34.92 mm^3 and 23.09 mm^3"}, {"measurement": "% Inhibition Mean", "setting": "MDA-MB-231 xenograft; [13]", "value": 76.54, "unit": "%"}, {"measurement": "% Inhibition Median", "setting": "MDA-MB-231 xenograft; [13]", "value": 74.17, "unit": "%"}]}
